This experiment concerns the target T1, jack bean urease (Canavalia ensiformis, UniProt P07374).
T1 construct: purchased Sigma (St. Louis, MO, USA)
As to the kind of experiment: biochemical. The protocol:
The urease activity was determined by measuring the amount of ammonia produced with the indophenols method previously described. The reaction mixtures, comprising 20 µL of enzyme (jack bean urease, 5 U/mL) and 20 μL of test compounds in 50 μL buffer (100 mM urea, 0.01 M K2HPO4, 1 mM EDTA, and 0.01 M […], pH 8.2), were incubated for 30 min at 37 °C in a 96-well plate. Briefly, 50 μL each of phenol reagents (1%, w/v phenol and 0.005%, w/v sodium nitroprusside) and 50 μL of alkali reagent (0.5%, w/v NaOH and 0.1% active chloride NaOCl) were added to each well. The absorbance at 625 nm was measured after 10 min, using a microplate reader (OPTI Max, Tunable). All reactions were performed in triplicate. The urease inhibition activities were calculated according to the following formula:Urease inhibition activity (%) = (ODcontrol − ODsample × 100)/ODcontrol where ODcontrol and ODsample represents the optical densities in the absence and presence of the sample, respectively. Thiourea was used as the standard inhibitor for urease.

Structures are written as SMILES. Like-named read-outs stand apart in the source and are kept apart here.

T1 sequence (P07374 whole entry, looked up): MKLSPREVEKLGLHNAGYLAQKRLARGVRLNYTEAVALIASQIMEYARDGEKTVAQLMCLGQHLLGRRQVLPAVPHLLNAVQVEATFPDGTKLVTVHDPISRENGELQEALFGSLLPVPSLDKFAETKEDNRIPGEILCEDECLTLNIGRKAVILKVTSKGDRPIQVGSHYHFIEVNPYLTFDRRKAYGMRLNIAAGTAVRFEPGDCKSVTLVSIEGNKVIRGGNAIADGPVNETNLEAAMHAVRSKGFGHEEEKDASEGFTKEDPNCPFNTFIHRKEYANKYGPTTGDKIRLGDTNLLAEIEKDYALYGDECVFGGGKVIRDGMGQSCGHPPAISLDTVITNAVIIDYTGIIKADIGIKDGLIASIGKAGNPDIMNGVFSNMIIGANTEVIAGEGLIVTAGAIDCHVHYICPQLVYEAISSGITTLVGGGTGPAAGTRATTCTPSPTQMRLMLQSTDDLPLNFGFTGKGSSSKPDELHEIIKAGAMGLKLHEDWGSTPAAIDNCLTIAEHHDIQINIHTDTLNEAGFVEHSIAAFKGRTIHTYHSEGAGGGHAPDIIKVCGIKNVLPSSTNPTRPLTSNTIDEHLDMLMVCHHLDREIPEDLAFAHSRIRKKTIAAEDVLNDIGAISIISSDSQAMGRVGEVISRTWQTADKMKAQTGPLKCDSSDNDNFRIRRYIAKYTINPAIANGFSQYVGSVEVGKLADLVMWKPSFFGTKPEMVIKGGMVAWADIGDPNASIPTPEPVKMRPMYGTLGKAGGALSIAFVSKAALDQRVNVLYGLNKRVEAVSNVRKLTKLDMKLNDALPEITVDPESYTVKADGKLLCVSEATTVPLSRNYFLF

In general, IC50 refers to the point on the concentration scale where inhibition reaches its midpoint. For the compound `COc1ccc(-c2n[nH]c(=O)n2/N=C/c2cccc(/C=N/n3c(-c4ccc(OC)cc4)n[nH]c3=O)n2)cc1` [Compound 3], inhibition was half-maximal at 18.9 ± 1.81 µM (IC50).
For the compound `NC(N)=S` [Thio-Urea, Thiourea, reference compound], the IC50 (jack bean urease 5 U/mL, 100 mM urea, pH 8.2, 30 min 37 °C, read-out: Urease Inhibition IC50) amounted to 20.7 ± 0.45 µM.
The compound `COc1ccc(-c2n[nH]c(=S)n2/N=C/c2cccc(/C=N/n3c(-c4ccc(OC)cc4)n[nH]c3=S)n2)cc1` [Compound 4] displayed an IC50 of 29.3 ± 3.32 µM.

These data come from PMC6359172, “Symmetrical Heterocyclic Cage Skeleton: Synthesis, Urease Inhibition Activity, Kinetic Mechanistic Insight, and Molecular Docking Analyses” (Molecules, 2019).
